Earlier results, collected in US9580717B2, “Heterologous hosts” (priority 2009, dated 2017).

Columns and labels:
[1] = test system: malignant mammalian cells
P388 leukaemia cells = conditions: mouse, in vivo

Compound | cytopathic activity against malignant mammalian cells [1] | cytotoxicity to tumour cell lines (tumour cell lines) | lifespan of mice inoculated with P388 leukaemia cells (P388 leukaemia cells)
C[C@H]1CCC(C2=C(CC(=O)NCC(=O)c3csc(C(=O)C(=O)c4csc(CNC(=O)CC5=C(C6=N[C@@H](C)CC6)C(=O)NC56CC6)n4)n3)C3(CC3)NC2=O)=N1 [Colibactin] | cytopathic activity |  | 
CCCCCCC/C=C/C=C/C(=O)N[C@H](C(=O)N[C@H]1C[C@@H](O)CCNC(=O)/C=C/[C@H](C)NC1=O)[C@@H](C)O [Glidobactin A] |  | cytotoxic to tumour cell lines | can prolong the lifespan
